System: 624824-186-R-J3-PDC multicell spheroids, viability
Test: Anticancer human tumor 624824-186-R-J3-PDC patient-derived colon adenocarcinoma cell line growth inhibition [PI3K]
Details: for viability, T/C: stronger effect = lower value; active = viability on the fitted dose curve at most 10% of control; inactive = the rest
How it was run: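 We assembled tumor spheroids that included a stromal compartment of HUVEC and MSCs, then exposed them to targeted agents alone and together with PI3K pathway inhibitors. Concentration series descended by half-log from clinically achievable Cmax levels. Viability served as the endpoint.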

[1] = curve of first compound, second compound 0.00316 µM
[2] = curve of first compound, second compound 0.01 µM
[3] = curve of first compound, second compound 0.0316 µM
[4] = curve of first compound, second compound 0.1 µM
[5] = curve of first compound, second compound 0.316 µM
[6] = curve of first compound, second compound 1 µM
[7] = second compound 0.00316 µM, first compound 0.0316 µM
[8] = second compound 0.00316 µM, first compound 0.1 µM
[9] = second compound 0.00316 µM, first compound 0.316 µM
[10] = second compound 0.00316 µM, first compound 1 µM
[11] = second compound 0.00316 µM, first compound 3.16 µM
[12] = second compound 0.00316 µM, first compound 10 µM
[13] = second compound 0.01 µM, first compound 0.0316 µM
[14] = second compound 0.01 µM, first compound 0.1 µM
[15] = second compound 0.01 µM, first compound 0.316 µM
[16] = second compound 0.01 µM, first compound 1 µM
[17] = second compound 0.01 µM, first compound 3.16 µM
[18] = second compound 0.01 µM, first compound 10 µM
[19] = second compound 0.0316 µM, first compound 0.0316 µM
[20] = second compound 0.0316 µM, first compound 0.1 µM
[21] = second compound 0.0316 µM, first compound 0.316 µM
[22] = second compound 0.0316 µM, first compound 1 µM
[23] = second compound 0.0316 µM, first compound 3.16 µM
[24] = second compound 0.0316 µM, first compound 10 µM
[25] = second compound 0.1 µM, first compound 0.0316 µM
[26] = second compound 0.1 µM, first compound 0.1 µM
[27] = second compound 0.1 µM, first compound 0.316 µM
[28] = second compound 0.1 µM, first compound 1 µM
[29] = second compound 0.1 µM, first compound 3.16 µM
[30] = second compound 0.1 µM, first compound 10 µM
[31] = second compound 0.316 µM, first compound 0.0316 µM
[32] = second compound 0.316 µM, first compound 0.1 µM
[33] = second compound 0.316 µM, first compound 0.316 µM
[34] = second compound 0.316 µM, first compound 1 µM
[35] = second compound 0.316 µM, first compound 3.16 µM
[36] = second compound 0.316 µM, first compound 10 µM
[37] = second compound 1 µM, first compound 0.0316 µM
[38] = second compound 1 µM, first compound 0.1 µM
[39] = second compound 1 µM, first compound 0.316 µM
[40] = second compound 1 µM, first compound 1 µM
[41] = second compound 1 µM, first compound 3.16 µM
[42] = second compound 1 µM, first compound 10 µM
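Also: spheroids exposed to agents for seven days before luminescence read.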
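For viability, T/C in this document: luminescent signal used as a stand-in for spheroid viability; percent viability relative to DMSO vehicle control wells taken as 100%.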

CNC(=O)c1ccc(N2C(=S)N(c3ccc(C#N)c(C(F)(F)F)c3)C(=O)C2(C)C)cc1F + CC(Nc1ccc2c(c1)OCCn1cc(N3C(=O)OCC3C(F)F)nc1-2)C(N)=O
inactive: viability, T/C [7] 105% | viability, T/C [8] 104% | viability, T/C [9] 104% | viability, T/C [10] 87.4% | viability, T/C [11] 97% | viability, T/C [12] 106% | viability, T/C [13] 103% | viability, T/C [14] 101% | viability, T/C [15] 108% | viability, T/C [16] 97.1% | viability, T/C [17] 96.1% | viability, T/C [18] 99.1% | viability, T/C [19] 95.4% | viability, T/C [20] 104% | viability, T/C [21] 102% | viability, T/C [22] 97.3% | viability, T/C [23] 99.5% | viability, T/C [24] 99.6% | viability, T/C [25] 99.6% | viability, T/C [26] 101% | viability, T/C [27] 103% | viability, T/C [28] 101% | viability, T/C [29] 109% | viability, T/C [30] 80.3% | viability, T/C [31] 89.4% | viability, T/C [32] 90% | viability, T/C [33] 94.2% | viability, T/C [34] 97.8% | viability, T/C [35] 92% | viability, T/C [36] 82% | viability, T/C [37] 90.6% | viability, T/C [38] 89.2% | viability, T/C [39] 95.8% | viability, T/C [40] 90.5% | viability, T/C [41] 88.9% | viability, T/C [42] 76.4%
> 10 µM: IC50 [1] | IC50 [2] | IC50 [3] | IC50 [4] | IC50 [5] | IC50 [6]

CCCS(=O)(=O)Nc1ccc(F)c(C(=O)c2c[nH]c3ncc(-c4ccc(Cl)cc4)cc23)c1F + COc1c(OCCCN2CCOCC2)ccc2c3n(c(=NC(=O)c4cnc(N)nc4)nc12)CCN3
1.87 µM: IC50 [3]
0.331 µM: IC50 [4]
active: viability, T/C [36] 8.93% | viability, T/C [42] 6.57%
< 0.0316 µM: IC50 [5] | IC50 [6]
5.31 µM: IC50 [1]
inactive: viability, T/C [7] 87.3% | viability, T/C [8] 103% | viability, T/C [9] 114% | viability, T/C [10] 96.9% | viability, T/C [11] 82.5% | viability, T/C [12] 10.3% | viability, T/C [13] 102% | viability, T/C [14] 102% | viability, T/C [15] 84.8% | viability, T/C [16] 74.8% | viability, T/C [17] 61.5% | viability, T/C [18] 13.6% | viability, T/C [19] 95.7% | viability, T/C [20] 86.3% | viability, T/C [21] 65.4% | viability, T/C [22] 67% | viability, T/C [23] 42.6% | viability, T/C [24] 16.1% | viability, T/C [25] 74.7% | viability, T/C [26] 66% | viability, T/C [27] 46.4% | viability, T/C [28] 37.7% | viability, T/C [29] 27.5% | viability, T/C [30] 9.08% | viability, T/C [31] 44% | viability, T/C [32] 37.5% | viability, T/C [33] 31.8% | viability, T/C [34] 24.1% | viability, T/C [35] 17.2% | viability, T/C [37] 29% | viability, T/C [38] 27.1% | viability, T/C [39] 20.4% | viability, T/C [40] 17.2% | viability, T/C [41] 12.5%
3.71 µM: IC50 [2]

COc1c(OCCCN2CCOCC2)ccc2c3n(c(=NC(=O)c4cnc(N)nc4)nc12)CCN3
inactive: viability, T/C (compound 0.00316 µM) 102% [middle of 8 runs] | viability, T/C (compound 0.01 µM) 104% [middle of 8 runs] | viability, T/C (compound 0.0316 µM) 102% [middle of 8 runs] | viability, T/C (compound 0.1 µM) 85.9% [middle of 8 runs] | viability, T/C (compound 0.316 µM) 54.4% [middle of 8 runs] | viability, T/C (compound 1 µM) 31.7% [middle of 8 runs]
380 nM [middle of 8 runs]: IC50 (compound alone, run of 04/25/2023)

CC1(C)CCC(Nc2ncc(C(F)(F)F)c(-c3c[nH]c4c(P(C)(C)=O)c(C#N)ccc34)n2)CN1 (stereo not drawn) + Cc1nc(NC(=O)N2CCCC2C(N)=O)sc1-c1ccnc(C(C)(C)C(F)(F)F)c1
5.42 µM: IC50 [4]
4.6 µM: IC50 [6]
1.83 µM: IC50 (curve of first compound, second compound 3.16 µM)
active: viability, T/C [24] 4.64% | viability, T/C [30] 4.24% | viability, T/C [36] 4.3% | viability, T/C [42] 3.52% | viability, T/C (second compound 3.16 µM, first compound 10 µM) 2.38%
5.18 µM: IC50 [5]
< 0.0316 µM: IC50 (curve of first compound, second compound 10 µM)
inactive: viability, T/C [19] 113% | viability, T/C [20] 92% | viability, T/C [21] 106% | viability, T/C [22] 101% | viability, T/C [23] 95% | viability, T/C [25] 107% | viability, T/C [26] 89.9% | viability, T/C [27] 110% | viability, T/C [28] 102% | viability, T/C [29] 90.3% | viability, T/C [31] 97.5% | viability, T/C [32] 103% | viability, T/C [33] 88% | viability, T/C [34] 92.2% | viability, T/C [35] 84.5% | viability, T/C [37] 76.1% | viability, T/C [38] 75.9% | viability, T/C [39] 79.3% | viability, T/C [40] 79.4% | viability, T/C [41] 72.3% | viability, T/C (second compound 3.16 µM, first compound 0.0316 µM) 59.1% | viability, T/C (second compound 3.16 µM, first compound 0.1 µM) 54.3% | viability, T/C (second compound 3.16 µM, first compound 0.316 µM) 53.7% | viability, T/C (second compound 3.16 µM, first compound 1 µM) 55.3% | viability, T/C (second compound 3.16 µM, first compound 3.16 µM) 45.6% | viability, T/C (second compound 10 µM, first compound 0.0316 µM) 35.5% | viability, T/C (second compound 10 µM, first compound 0.1 µM) 34.1% | viability, T/C (second compound 10 µM, first compound 0.316 µM) 36.2% | viability, T/C (second compound 10 µM, first compound 1 µM) 34% | viability, T/C (second compound 10 µM, first compound 3.16 µM) 39% | viability, T/C (second compound 10 µM, first compound 10 µM) 1.61%
5.61 µM: IC50 [3]

Source: PubChem BioAssay AID1963977 (Molecular Pharmacology Branch, DTP, NCI, 2024)
